# Assay results from patent US20110288036A1, “Methods for Treating or Preventing Vascular Graft Failure” (priority 2010, published 2011).
# Key:
# [1] = test system: human saphenous vein (HSV); test: Muscle bath: sodium nitroprusside-induced relaxation of human saphenous vein; assay type: cell-based; settings: 50 or 100 μM pretreatment; data not shown
# Experimental: De-identified, discarded segments of human saphenous vein (HSV) were collected from consented patients undergoing coronary artery or peripheral vascular bypass surgeries. HSV segments were stored in a saline solution until the end of the surgical procedure, at which time they were placed in cold transplant harvest buffer (100 mM potassium lactobionate, 25 mM KH2PO4, 5 mM MgSO4, 30 mM Raffinose, 5 mM Adenosine, 3 mM Glutathione, 1 mM Allopurinol, 50 g/L Hydroxyethyl starch, pH 7.4). The vessels were used within 24 hours of harvest. Using sterile technique, HSV segments were transferred to a 60-mm Petri dish under a sterile hood. The edges (0.5 mm) of each segment were removed with a blade and excess adventitial tissue and fat removed with minimal manipulation. HSV segments were cut into consecutive rings of approximately 1.0 mm in width to be utilized for organ culture or muscle bath experiments. Two rings from each segment were immediately fixed in 10% formalin at 37° C. for 30 min to obtain pre-culture intimal thickening measurements.
# In preparation for testing vein segment functional viability, HSV rings were weighed and their lengths recorded. To focus on smooth muscle responses, the endothelium was mechanically denuded by rolling the luminal surface of each ring at the tip of a fine vascular forceps before suspension in a muscle bath containing a bicarbonate buffer (120 mM NaCl, 4.7 mM KCl, 1.0 mM MgSO4, 1.0 mM NaH2PO4, 10 mM glucose, 1.5 mM CaCl2, and 25 mM […], pH 7.4) equilibrated with 95% O2 and 5% CO2 at 37° C. The rings were stretched and the length progressively adjusted until maximal tension was obtained. […] Rings were maintained at a resting tension of 1 g, which produces maximal responses to contractile agonists as previously determined, and equilibrated for 2 hours in buffer. […]
# HSV rings were first contracted with 110 mM KCl (with equimolar replacement of NaCl in bicarbonate buffer) and the generated force was measured. […] Rings were relaxed with a cumulative log dose of sodium nitroprusside (SNP), a nitric oxide donor, and the force generated was recorded. […] Rings were then incubated with either buffer alone or buffer plus 100 μM of MMI-0100 ([…] (SEQ ID NO: 1)) for 2 hours, followed by treatment with the same doses of PE and SNP, and the forces generated again recorded. Measured force was normalized for ring weight and length and percent relaxation was calculated; force generated with 10^−6 M of PE was set as 0% relaxation.
# The enhancing effect of MMI-0100 ([…]; SEQ ID NO: 1) on smooth muscle relaxation was examined by pre-treating harvested human saphenous vein (HSV) with MMI-0100 ([…]; SEQ ID NO: 1) before SNP treatment. […] Percentage of relaxation at 0, 0.01, 0.1, and 1.0 μM of SNP was measured. […]
# PKC = settings: AIP 1 μM; cited from earlier work
# CaMKIV = CaMKIV (Homo sapiens, UniProt Q16566); settings: AIP 1 μM; cited from earlier work
# CaMKIV, sequence (Q16566 whole entry, species assumed): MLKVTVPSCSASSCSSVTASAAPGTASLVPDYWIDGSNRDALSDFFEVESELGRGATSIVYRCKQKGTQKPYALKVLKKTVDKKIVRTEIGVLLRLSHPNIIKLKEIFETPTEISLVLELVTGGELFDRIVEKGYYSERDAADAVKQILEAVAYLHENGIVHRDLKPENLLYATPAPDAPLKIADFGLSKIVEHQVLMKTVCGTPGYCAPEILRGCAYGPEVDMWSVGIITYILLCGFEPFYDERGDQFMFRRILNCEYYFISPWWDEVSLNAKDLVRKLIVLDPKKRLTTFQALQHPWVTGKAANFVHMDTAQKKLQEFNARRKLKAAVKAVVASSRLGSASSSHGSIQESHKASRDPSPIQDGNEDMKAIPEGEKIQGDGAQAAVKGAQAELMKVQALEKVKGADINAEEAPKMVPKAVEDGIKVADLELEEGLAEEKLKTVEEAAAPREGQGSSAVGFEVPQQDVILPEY
# [2] = test system: Ca2+/calmodulin-dependent protein kinase II (CaMKII); settings: cited from earlier work
# PKA = settings: AIP 1 μM; cited from earlier work
# MK2 = settings: known small molecule inhibitor of MK2; ATP competitive; cited from earlier work
# [3] = test system: immortalized human pleural mesothelial cells (ATCC CRL-9444); test: IL-6 ELISA in TNF-α-stimulated mesothelial cells; assay type: cell-based
# Experimental: Expression of inflammatory cytokines was induced by applying 1 or 10 ng/ml of TNF-α to cultured mesothelial cells. Briefly, immortalized human pleural mesothelial cells (ATCC CRL-9444) were grown in Medium199 with Earle's BSS, 0.75 mM L-glutamine (Mediatech Inc., Manassas, Va.), 1.25 g/l sodium bicarbonate (Sigma), 3.3 nM epidermal growth factor (EGF) (MBL International, Woburn, Mass.), 40 nM hydrocortisone (Sigma), 870 nM insulin (MBL International), 20 mM HEPES (Sigma), trace elements mixture B (Mediatech Inc., Waltham, Mass.), 10% fetal bovine serum (FBS) (Hyclone), and 1% penicillin/streptomycin (Mediatech Inc., Waltham, Mass.). […] Human mesothelial cells were treated with two different concentrations (1 and 10 ng/mL) of TNF-α for 2, 6, 12, and 24 hours (data not shown). […] Without TNF-α stimulation, mesothelial cells made negligible amounts of IL-6. […] In subsequent experiments designed to determine whether the MMI-0100 peptide ([…]; SEQ ID NO: 1) could reduce TNF-α induced IL-6 expression, both 1 and 10 ng/mL of TNF-α were selected as stimuli. 10 ng/mL of TNF-α is regarded as more physiologically relevant for mesothelial cells.
# Prior to cytokine and/or inhibitor treatment, cells were allowed to acclimate in serum-free media consisting of only Medium199 with Earle's BSS, 0.75 mM L-glutamine, 1.25 g/l sodium bicarbonate, 20 mM HEPES, trace elements mixture B (Mediatech Inc., Waltham, Mass.), and 1% penicillin/streptomycin (Mediatech Inc., Waltham, Mass.) for 24 hours. […] Average concentration of IL-6 (pg/ml per 10^5 cells) at each time was determined by cytokine-specific ELISA.
molecule,measurement,setting,value
"YARAAARQARA (mammal) [PTD peptide, control peptide (transduction domain, PTD peptide), reference compound]",relaxation response vs untreated control,[1],no significant difference in relaxation response
autocamtide-2 related inhibitory peptide [AIP],PKC activity,PKC,not affected
same,CaMKIV activity,CaMKIV,not affected
same,CaMKII activity,[2]; AIP 1 μM,inhibited completely
same,IC50,[2],100 nM
same,PKA activity,PKA,not affected
"CC(=O)c1c(O)c(C)c(O)c(Cc2c(O)c3c(c(C(=O)/C=C/c4ccccc4)c2O)OC(C)(C)C=C3)c1O [Rottlerin, reference compound]",IC50,MK2,5000 nM
same,IL-6 expression,"[3]; TNF-α 1 ng/mL, 6 hrs",significantly increased IL-6 expression above that induced by TNF-α alone
same,IL-6 expression,"[3]; TNF-α 1 ng/mL, MMI-0100 1000 or 3000 μM, 6, 12, 24 hours",ineffective in reducing IL-6 expression
same,IL-6 expression,"[3]; TNF-α 10 ng/mL, 6, 12, 24 hours",reduced IL-6 expression only at a higher dose (1 μM) and only at twenty-four hours after treatment
